According to ChEMBL document CHEMBL4382198, “Discovery of Risdiplam, a Selective Survival of Motor Neuron-2 ( SMN2) Gene Splicing Modifier for the Treatment of Spinal Muscular Atrophy (SMA)” (J Med Chem, 2018):

Key:
[1] = Stabilization of human APLP2 mRNA splicing expressed in human SMA-derived fibroblasts at 121 to 605 nM by RT-qPCR analysis; assay type: ADME; details: 0.605 µM
[2] = system: Mus musculus; assay: In-vivo stabilization of SMN2 mRNA in SMA adult C/C allele mouse model assessed as increase in SMN protein levels in brain at 1 mg/kg, po dosed once daily for 10 days relative to control; assay type: functional
[3] = system: Mus musculus; assay: In-vivo stabilization SMN2 mRNA in SMA delta7 ip dosed mouse assessed as increase in number of motor neurons dosed daily starting from postnatal day 3 to postnatal day 14 by immunohistochemistry; assay type: functional, organism-based
[4] = Fraction unbound in mouse plasma; assay type: ADME, cell-free
[5] = Efflux ratio of permeability in human SMA-derived fibroblasts; assay type: ADME, cell-based, Fibroblast; details: not told
[6] = Lipophilicity, log D of the compound at pH 7.4; assay type: physicochemical; details: buffer
[7] = Clearance in cynomolgus monkey at 0.1 mg/kg, iv administered as single dose; assay type: ADME, organism-based, Macaca fascicularis; details: in vivo
[8] = Chronic toxicity in retina of po dosed cynomolgus monkey assessed as multifocal peripheral retina degeneration after 39 weeks by OCT analysis; assay type: organism-based, Macaca fascicularis; details: in vivo, 6552 h
[9] = Half life in cynomolgus monkey at 0.5 mg/kg, po administered as single dose; assay type: ADME, organism-based, Macaca fascicularis; details: in vivo
[10] = system: Mus musculus; assay: In-vivo stabilization of SMN2 mRNA in SMA neonatal delta7 mouse model assessed as increase in SMN protein levels in quadriceps at 10 mg/kg, ip dosed once daily starting from postnatal day 3 to postnatal day 9 relative to control; assay type: functional
[11] = system: Mus musculus; assay: In-vivo stabilization SMN2 mRNA in SMA delta7 mouse assessed as increase in mean survival day at 0.1 mg/kg, ip dosed daily starting from postnatal day 3 to postnatal day 23 followed by po dosing 0.3 mg/kg per day via gavage (reference value: 10.5 days); assay type: functional
[12] = system: Mus musculus; assay: In-vivo stabilization SMN2 mRNA in SMA delta7 ip dosed mouse assessed as increase in number of vGlut1 inputs in L3 to L5 spinal cord dosed daily starting from postnatal day 3 to postnatal day 14 by immunohistochemistry; assay type: functional, organism-based
[13] = system: Mus musculus; assay: In-vivo stabilization of SMN2 mRNA in SMA neonatal delta7 mouse model assessed as increase in SMN protein levels in brain at 10 mg/kg, ip dosed once daily starting from postnatal day 3 to postnatal day 9 relative to control; assay type: functional
[14] = Half life in rat at 5.5 mg/kg, po administered as single dose; assay type: ADME, organism-based; details: in vivo
[15] = system: Mus musculus; assay: In-vivo stabilization of SMN2 mRNA in SMA adult C/C allele mouse model assessed as increase in SMN protein levels in brain at 10 mg/kg, po dosed once daily for 10 days relative to control; assay type: functional
[16] = system: Mus musculus; assay: In-vivo stabilization of SMN2 mRNA in SMA neonatal delta7 mouse model assessed as increase in SMN protein levels in brain at 0.3 mg/kg, ip dosed once daily starting from postnatal day 3 to postnatal day 9 relative to control; assay type: functional

## Cc1cn2nc(-c3cc(=O)n4cc(N5CCNC6(CC6)C5)ccc4n3)cc(C)c2n1
[1]
  Activity: Non-Toxic
[2]
  Activity: 0%
[3]
  Activity: Dose-dependent effect
[4]
  fraction unbound: 0.1
[5]
  efflux ratio: 2.2
[6]
  logD: 2.5
[7]
  clearance: 5.7 mL/min/kg
[8]
  Activity: Toxic
[9]
  half-life: 5.4 h
[10]
  Activity: 241%
[11]
  MSD: 26 days
[12]
  Activity: Dose-dependent effect
[13]
  Activity: 202%
[14]
  half-life: 6.4 h
[15]
  Activity: 100%
[16]
  Activity: 90%
